The source of these data is patent US5061794A, “Cephalosporin derivatives, and antibacterial agents” (priority 1986, dated 1991).

One experiment relates to E. cloacae 963. Kind of experiment: in vitro antibacterial activity, agar plate dilution method (MIC). It is filed as cell-based. As to conditions: 10^6 CFU/ml. The procedure, abridged: (§1)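 Agar dilution: MH agar + graded drug conc.; inoculum 10^6 CFU/ml (overnight MH broth culture, one loopful); 37° C., 16 h; MIC, μg/ml.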
The next experiment relates to E. coli NIHJ JC2. The description is as above. Format: cell-based. As to conditions: Escherichia coli, NIHJJC2, 16 h, read-out: Minimum Inhibitory Concentration (MIC), E. coli NIHJ JC2, 10^6 CFU/ml, 37° C. The procedure, abridged: as §1
Another experiment has as its system K. pneumoniae PCI-602. Described as above. Format: cell-based. As to conditions: Klebsiella pneumoniae, PCI602, 16 h, read-out: Minimum Inhibitory Concentration (MIC), K. pneumoniae PCI-602; 10^6 CFU/ml. The method in brief:
as §1

The test system of a further experiment is M. morganii GN5407. Described as above. It is filed as cell-based. As to conditions: Morganella morganii, GN5407, 16 h, read-out: Minimum Inhibitory Concentration (MIC), *M. morganii GN5407, lactamase-producing strain; 10^6 CFU/ml. The method in brief: as §1
For the next experiment, the system named is S. aureus 209P NIHJ-JC1. The description is as above. As to conditions: Staphylococcus aureus, 16 h. It is filed as cell-based. The method in brief: as §1
In another experiment the test system is S. marcescens IAM 1184. Described as above. Format: cell-based. As to conditions: Serratia marcescens, IAM1184, 16 h, S. marcescens IAM 1184; 10^6 CFU/ml; read-out: Minimum Inhibitory Concentration (MIC). The method in brief:
as §1

Another experiment concerns S. marcescens No. 16-2. Described as above. Format: cell-based. As to conditions: Serratia marcescens, NO.162, 16 h. The procedure, abridged: as §1
Another experiment has as its system E. coli GN5482. The description is as above. Format: cell-based. As to conditions: Escherichia coli, GN5482, 16 h. The method in brief: as §1
For another experiment, the system named is P. vulgaris HX-19. The experiment is described as above. It is filed as cell-based. As to conditions: Proteus vulgaris, HX19, 16 h, P. vulgaris HX-19; 10^6 CFU/ml; read-out: Minimum Inhibitory Concentration (MIC). The procedure, abridged:
as §1

In another experiment the test system is P. vulgaris No. 33. Described as above. It is filed as cell-based. As to conditions: Proteus vulgaris, NO.33, 16 h, read-out: Minimum Inhibitory Concentration (MIC), *P. vulgaris No. 33, lactamase-producing strain; 10^6 CFU/ml. The procedure, abridged: as §1
A further experiment relates to K. pneumoniae No. 42. Described as above. Format: cell-based. As to conditions: Klebsiella pneumoniae, NO.42, 16 h, read-out: Minimum Inhibitory Concentration (MIC), *K. pneumoniae No. 42, lactamase-producing strain; 10^6 CFU/ml. The procedure, abridged: as §1
Another experiment relates to K. oxytoca GN10650. Described as above. Format: cell-based. As to conditions: Klebsiella oxytoca, GN10650, 16 h, read-out: Minimum Inhibitory Concentration (MIC), *K. oxytoca GN10650, lactamase-producing strain; 10^6 CFU/ml. The procedure, abridged: as §1
A further experiment deals with E. cloacae Nek 39. The description is as above. Format: cell-based. As to conditions: Enterobacter cloacae, NEK39, 16 h, read-out: Minimum Inhibitory Concentration (MIC), *E. cloacae Nek 39, lactamase-producing strain; 10^6 CFU/ml. The procedure, abridged: as §1
For the next experiment, the system named is Ps. cepacia 23. The experiment is described as above. Format: cell-based, Pseudomonas cepacia. As to conditions: Burkholderia cepacia, 16 h; Ps. cepacia 23; 10^6 CFU/ml; read-out: Minimum Inhibitory Concentration (MIC). The procedure, abridged:
as §1

In another experiment the test system is Ps. aeruginosa IF03445. The description is as above. It is filed as cell-based, Pseudomonas aeruginosa. As to conditions: Pseudomonas aeruginosa, IF03445, 16 h, read-out: Minimum Inhibitory Concentration (MIC), Ps. aeruginosa IF03445; 10^6 CFU/ml. The method in brief: as §1
The next experiment has as its system Ps. aeruginosa AK 109. The description is as above. Format: cell-based, Pseudomonas aeruginosa. As to conditions: Pseudomonas aeruginosa, AK109, 16 h, read-out: Minimum Inhibitory Concentration (MIC), Ps. aeruginosa AK 109; 10^6 CFU/ml. The procedure, abridged:
as §1

The test system of the next experiment is Ps. aeruginosa AKR17. The description is as above. As to conditions: Pseudomonas aeruginosa. Format: cell-based, Pseudomonas aeruginosa. The procedure, abridged:
as §1

The next experiment relates to E. coli CSH2 (RK1). The experiment in a line: microbe, parasite or virus in culture. Format: cell-based. As to conditions: Escherichia coli, 16 h, read-out: Minimum Inhibitory Concentration (MIC), *E. coli CSH2 (RK1), lactamase-producing strain; 10^6 CFU/ml. The method in brief: as §1
Another experiment concerns E. coli CSH(RE45). The experiment in a line: microbe, parasite or virus in culture. It is filed as cell-based. As to conditions: Escherichia coli, 16 h, read-out: Minimum Inhibitory Concentration (MIC), *E. coli CSH(RE45), lactamase-producing strain; 10^6 CFU/ml. The procedure, abridged:
as §1

Another experiment concerns A. calcoaceticus No. 4. The experiment in a line: in vitro antibacterial activity, agar plate dilution method (MIC). It is filed as cell-based, Acinetobacter calcoaceticus. As to conditions: Acinetobacter calcoaceticus, NO.4, 16 h, 10^6 CFU/ml. The method in brief: as §1
Setting [1] is: Enterobacter cloacae, 963, 16 h, read-out: Minimum Inhibitory Concentration (MIC), E. cloacae 963.
Where [2] appears, read: read-out: Minimum Inhibitory Concentration (MIC), S. aureus 209P NIHJ-JC1, 10^6 CFU/ml, 37° C., 16 hours.
Where [3] appears, read: read-out: Minimum Inhibitory Concentration (MIC), *S. marcescens No. 16-2, lactamase-producing strain, 10^6 CFU/ml.
Setting [4] is: read-out: Minimum Inhibitory Concentration (MIC), A. calcoaceticus No. 4.
Where [5] appears, read: read-out: Minimum Inhibitory Concentration (MIC).

Like-named read-outs stand apart in the source and are kept apart here.

In the case of `C=CCON=C(C(=O)NC1C(=O)N2C(C(=O)O)=C(CSc3nc(-c4ccc(O)c(O)c4)cs3)CSC12)c1csc(N)n1` (stereo not drawn) [Ex. 42, sodium 78-[2-allyloxyimino-2-(2-aminothiazol-4-yl)acetamido]-3-[4-(3,4-dihydroxyphenyl)-thiazol-2-yl]thiomethyl-3-cephem-4-carboxylate], the MIC in the experiment with E. cloacae 963 (setting [1]) was 0.05 µg/mL; in the experiment on E. coli NIHJ JC2, 0.2 µg/mL; with K. pneumoniae PCI-602, under 0.006 µg/mL; with M. morganii GN5407, 0.05 µg/mL; in the experiment with S. aureus 209P NIHJ-JC1 (setting [2]), 0.78 µg/mL; in the experiment on S. marcescens IAM 1184, 0.05 µg/mL. Moreover, the MIC turned out to be 6.25 µg/mL in the experiment with S. marcescens No. 16-2 (setting [3]); 0.78 µg/mL with E. coli GN5482 (read-out: Minimum Inhibitory Concentration (MIC), *E. coli GN5482, lactamase-producing strain, 10^6 CFU/ml); 0.0125 µg/mL in the experiment with P. vulgaris HX-19; 0.05 µg/mL in the experiment with P. vulgaris No. 33; 0.2 µg/mL in the experiment on K. pneumoniae No. 42; 3.12 µg/mL with K. oxytoca GN10650. Besides, the MIC came out at 0.39 µg/mL in the experiment with E. cloacae Nek 39; 0.1 µg/mL with Ps. cepacia 23; 0.78 µg/mL with Ps. aeruginosa IF03445; 0.78 µg/mL with Ps. aeruginosa AK 109; 100 µg/mL with Ps. aeruginosa AKR17 (16 h, Ps. aeruginosa AKR17, 10^6 CFU/ml, read-out: Minimum Inhibitory Concentration (MIC)); 0.025 µg/mL in the experiment with E. coli CSH2 (RK1). The MIC with E. coli CSH(RE45) was 0.025 µg/mL; in the experiment on A. calcoaceticus No. 4 (setting [4]) it was 0.39 µg/mL.
In the case of `Nc1nc(C(=NOCC(=O)O)C(=O)NC2C(=O)N3C(C(=O)O)=C(CSc4nc(-c5ccc(O)c(O)c5)cs4)CSC23)cs1` (stereo not drawn) [Ex. 43, disodium 7β-[2-(2-aminothiazol-4-yl)-2-carboxylatemethoxyimincacetamido]-3-[4-(3,4-dihydroxyphenyl)thiazol-2-yl]thiomethvl-3-cephem-4-carboxylate], the MIC in the experiment on E. cloacae 963 (Enterobacter cloacae, 16 h, E. cloacae 963, read-out: Minimum Inhibitory Concentration (MIC)) was 0.1 µg/mL; in the experiment with E. coli NIHJ JC2 it was 0.2 µg/mL; with K. pneumoniae PCI-602 it was under 0.006 µg/mL; in the experiment on M. morganii GN5407, 0.05 µg/mL; in the experiment with S. aureus 209P NIHJ-JC1 (setting [5]), 12.5 µg/mL; in the experiment on S. marcescens IAM 1184 it was 0.05 µg/mL. In addition, the MIC with S. marcescens No. 16-2 (setting [3]) is 1.56 µg/mL; in the experiment with E. coli GN5482 (setting [5]), 0.39 µg/mL; with P. vulgaris HX-19 it was under 0.006 µg/mL; in the experiment with P. vulgaris No. 33 it was 0.05 µg/mL; with K. pneumoniae No. 42 it was 0.1 µg/mL; in the experiment with K. oxytoca GN10650 it was 0.39 µg/mL. The MIC is 0.2 µg/mL in the experiment on E. cloacae Nek 39; under 0.006 µg/mL in the experiment on Ps. cepacia 23; 0.78 µg/mL with Ps. aeruginosa IF03445; 0.78 µg/mL in the experiment with Ps. aeruginosa AK 109; 12.5 µg/mL in the experiment on Ps. aeruginosa AKR17 (AKR17, 16 h, read-out: Minimum Inhibitory Concentration (MIC)); 0.025 µg/mL in the experiment with E. coli CSH2 (RK1). Further, the MIC is 0.025 µg/mL in the experiment on E. coli CSH(RE45) and 0.2 µg/mL in the experiment on A. calcoaceticus No. 4 (A. calcoaceticus No. 4, read-out: Minimum Inhibitory Concentration (MIC)).
`Nc1nc(C(=NOC2(C(=O)O)CC2)C(=O)NC2C(=O)N3C(C(=O)O)=C(CSc4nc(-c5ccc(O)c(O)c5)cs4)CSC23)cs1` (stereo not drawn) [Ex. 45, disodium 7β-[2-(2-aminothiazol-4-yl)-2-(1-carboxvlate-1-cyclopropoxyimino)acetamido]-3-[4-(3,4-dihvdroxvphenyl)thiazol-2-yl]thiomethyl-3-cephem-4-carboxylate]: the MIC in the experiment with E. cloacae 963 (setting [1]) is 0.05 µg/mL; with E. coli NIHJ JC2, 0.2 µg/mL; with K. pneumoniae PCI-602, under 0.006 µg/mL; in the experiment with M. morganii GN5407 it was 0.05 µg/mL; with S. aureus 209P NIHJ-JC1 (setting [2]) it was 6.25 µg/mL; with S. marcescens IAM 1184, 0.05 µg/mL. The MIC is 0.39 µg/mL in the experiment on S. marcescens No. 16-2 (setting [5]); 0.39 µg/mL in the experiment on E. coli GN5482 (setting [5]); under 0.006 µg/mL in the experiment with P. vulgaris HX-19; 0.025 µg/mL in the experiment on P. vulgaris No. 33; 0.1 µg/mL with K. pneumoniae No. 42; 0.1 µg/mL in the experiment on K. oxytoca GN10650. Moreover, the MIC with E. cloacae Nek 39 is 0.05 µg/mL; in the experiment on Ps. cepacia 23, under 0.006 µg/mL; in the experiment on Ps. aeruginosa IF03445, 0.78 µg/mL; in the experiment on Ps. aeruginosa AK 109, 0.78 µg/mL; in the experiment with Ps. aeruginosa AKR17 (AKR17, 16 h, read-out: Minimum Inhibitory Concentration (MIC), Ps. aeruginosa AKR17, 10^6 CFU/ml), 6.25 µg/mL; with E. coli CSH2 (RK1) it was 0.025 µg/mL. The MIC in the experiment on E. coli CSH(RE45) is 0.05 µg/mL; with A. calcoaceticus No. 4 (setting [4]) it was 0.1 µg/mL.
